# Reference: patent US20220306695A1, “COMPSTATIN ANALOGUES AND THEIR MEDICAL USES” (priority 2019, published 2022)
# Where two headings read alike, the source gives them in different places. Starred links: 1 amine or outer side, 2 acyl side, 3 side chain; linkers in the order of their positions; H or OH if unused. Positions of bridges follow the written chain, without caps; N, C: chain ends. Non-standard residues stand in square brackets, D forms with d. Residues, ends and D or L forms follow the SMILES beside them. Groups on a side chain read outwards from the residue. *: point of attachment. Trp(1-Me) = Cn1cc(C[C@H](N)C(=O)O)c2ccccc21; Abu(4-yl) = O=C([C@H](CC[*:3])N[*:1])[*:2]; C18 diacid = O=C(O)CCCCCCCCCCCCCCCCC(=O)*; C16 diacid = O=C(O)CCCCCCCCCCCCCCC(=O)*; γGlu = O=C(O)[C@H](CCC(=O)[*:2])N[*:1]; AEEA = NCCOCCOCC(=O)O; Sar = CNCC(=O)O
# Key:
# [1] = test system: classical complement pathway; experiment: In vitro haemolysis assay (inhibition of classical complement pathway); assay type: cell-based, human; details: Table 3; human serum, sensitized sheep red blood cells; read-out: IC50[nM], in vitro analysis of inhibition of hemolysis
# How it was run: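 Serially diluted compound (9 points) was preincubated 15 min at room temperature with diluted human serum, titrated per batch to give 70-90% maximal haemolysis, in Tris/casein buffer pH 7.4 with Mg2+/Ca2+. Antibody-sensitized sheep erythrocytes were then added for 30 min at 37° C, and the reaction was stopped with EDTA. Haemolysis was read at A405, with IC50 from 4PL fit.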
# [2] = assay type: physicochemical; details: 50 mg/mL peptide; for Covalent oligomer content after 14 days 40° C. (%), F1 / Purity after 14 days 40° C. (%), F1: F1: 20 mM phosphate pH 5.5; for Covalent oligomer content after 14 days 40° C. (%), F1 / Covalent oligomer content after 14 days 40° C. (%), F2: denaturing SEC; for Purity after 14 days 40° C. (%), F1 / Purity after 14 days 40° C. (%), F2 / Purity after 14 days 40° C. (%), F3: normalized purity (HPLC)
# Experimental: Chemical stability of compstatin analogues with cystathionine or disulfide bridge. Stability was assessed in three formulations at 50 mg/mL peptide, F1:20 mM phosphate pH 5.5, F2:20 mM phosphate pH 6.5 and F3:20 mM phosphate pH 7.5. The formulations were prepared by direct dissolution of peptide from lyophilized portions in the respective formulations. pH was adjusted to target with 1 M NaOH and 1 M HCl. Chemical stability was assessed under accelerated conditions (14 days, 40° C.) and evaluated as change in purity by reverse phase HPLC, and change in covalent oligomer content by denaturing SEC. The formulations were placed at 40° C. with analysis points at T=0, 7 and 14 days. On each time point a small volume was extracted and diluted to 2 mg/mL and tested by reverse phase HPLC and denaturing SEC. Purity was assessed by reverse phase HPLC using an Ultimate 3000 system for binary gradient application equipped with a Kinetix C18 column (cat. no. 00F-4462-Y0, 150 mm×3 mm, 2.6 μm) run at 0.5 ml/min with a gradient of buffer A (0.3% TFA, aq.) and buffer B (0.3% TFA, 90% MeCN, aq.) gradient from 40% B to 70% B over 20 min. Detection was done using a diode array detector set to 220 nm. Covalent oligomer formation was assessed by denaturing SEC (size exclusion chromatography) using an Ultimate 3000 system equipped with a TSKgel SuperSW 2000 column (cat. no. 818674, 300 mm×3 mm, 4 μm) run at 0.5 ml/min with isocratic flow of buffer A (0.1% TFA, 45% MeCN, aq.), 10 min. Detection was done using a diode array detector set to 215 nm. Compounds 126 and 156 were carefully weighed out and dissolved in formulations F1, F2 and F3 to a target concentration of 50 mg/mL. Once visually dissolved, concentration was confirmed by absorbance at 280 nm, and samples were placed in stability at 40° C. Samples for analysis were extracted on T=0, 7 and 14 days from a 40° C. climate chamber. The extracted volume was dissolved 1:25 (final concentration: 2 mg/mL) in 20 mM phosphate pH 5.5, 6.5 or 7.5 and measured by reverse phase HPLC and denaturing SEC by injection of 0.4 μL (column load […]). The resulting chromatograms were integrated to determine chemical purity by reverse phase HPLC and covalent oligomer content by denaturing SEC.
# Human C3 = Human C3 (human, UniProt P01024 23-1663); experiment: cell-based or functional assay
# Human C3, sequence (P01024 23-1663 limits assumed): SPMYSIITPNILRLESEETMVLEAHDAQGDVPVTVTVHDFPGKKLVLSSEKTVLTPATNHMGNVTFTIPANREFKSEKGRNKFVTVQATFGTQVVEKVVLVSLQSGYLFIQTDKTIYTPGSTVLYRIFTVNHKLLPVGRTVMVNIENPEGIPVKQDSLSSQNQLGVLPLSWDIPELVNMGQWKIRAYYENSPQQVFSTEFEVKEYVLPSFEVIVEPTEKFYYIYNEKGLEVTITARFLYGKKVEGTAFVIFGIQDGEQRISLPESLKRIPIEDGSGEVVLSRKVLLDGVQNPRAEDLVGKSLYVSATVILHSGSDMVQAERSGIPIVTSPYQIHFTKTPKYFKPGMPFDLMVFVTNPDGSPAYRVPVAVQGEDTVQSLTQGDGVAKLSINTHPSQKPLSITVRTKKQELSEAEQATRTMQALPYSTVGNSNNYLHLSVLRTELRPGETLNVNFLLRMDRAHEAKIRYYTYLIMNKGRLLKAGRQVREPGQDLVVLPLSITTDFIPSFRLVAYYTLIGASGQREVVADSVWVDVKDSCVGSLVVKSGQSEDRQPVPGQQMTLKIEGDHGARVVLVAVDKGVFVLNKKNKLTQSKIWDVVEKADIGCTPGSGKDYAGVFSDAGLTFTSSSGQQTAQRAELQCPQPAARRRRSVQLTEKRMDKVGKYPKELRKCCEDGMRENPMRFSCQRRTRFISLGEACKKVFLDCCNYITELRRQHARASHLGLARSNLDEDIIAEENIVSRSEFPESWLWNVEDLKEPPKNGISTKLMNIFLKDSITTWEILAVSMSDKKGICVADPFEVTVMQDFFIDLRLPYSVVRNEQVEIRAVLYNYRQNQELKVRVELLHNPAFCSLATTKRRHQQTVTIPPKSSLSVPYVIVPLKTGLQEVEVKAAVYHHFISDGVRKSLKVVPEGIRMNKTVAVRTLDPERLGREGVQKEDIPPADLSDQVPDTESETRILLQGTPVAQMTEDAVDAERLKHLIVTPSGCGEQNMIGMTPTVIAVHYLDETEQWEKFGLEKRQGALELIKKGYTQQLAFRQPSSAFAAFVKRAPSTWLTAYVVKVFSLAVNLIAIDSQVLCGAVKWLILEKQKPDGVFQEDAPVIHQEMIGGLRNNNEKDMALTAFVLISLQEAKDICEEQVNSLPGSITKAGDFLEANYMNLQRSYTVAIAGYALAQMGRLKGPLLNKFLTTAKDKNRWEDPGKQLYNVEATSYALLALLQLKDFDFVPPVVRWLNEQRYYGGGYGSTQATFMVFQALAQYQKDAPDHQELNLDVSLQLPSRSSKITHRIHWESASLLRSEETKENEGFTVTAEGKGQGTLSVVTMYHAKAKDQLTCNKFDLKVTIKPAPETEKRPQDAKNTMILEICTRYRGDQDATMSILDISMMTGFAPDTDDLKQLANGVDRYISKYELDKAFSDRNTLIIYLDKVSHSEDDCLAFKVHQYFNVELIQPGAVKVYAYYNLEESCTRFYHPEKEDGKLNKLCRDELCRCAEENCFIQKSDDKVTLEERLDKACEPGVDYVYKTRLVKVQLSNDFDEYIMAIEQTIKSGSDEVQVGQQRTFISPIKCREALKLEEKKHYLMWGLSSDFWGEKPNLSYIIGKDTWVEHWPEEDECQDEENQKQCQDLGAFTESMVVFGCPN
"Covalent oligomer content after 14 days 40° C. (%), F1 [2]","Purity after 14 days 40° C. (%), F1 [2]","Covalent oligomer content after 14 days 40° C. (%), F2 ([2]; F2: 20 mM phosphate pH 6.5)","Purity after 14 days 40° C. (%), F2 ([2]; F2: 20 mM phosphate pH 6.5)","Covalent oligomer content after 14 days 40° C. (%), F2 ([2]; F3: 20 mM phosphate pH 7.5)","Purity after 14 days 40° C. (%), F3 ([2]; F3: 20 mM phosphate pH 7.5)",Molecule,IC50 [1],"IC50[nM], inhibition of hemolysis (Human C3)"
66%,45%,54%,47%,41%,57%,CC[C@H](C)[C@@H]1NC(=O)[C@@H](NC(=O)[C@H](Cc2ccccc2)NC(=O)[C@H](CCC(=O)O)NC(=O)[C@H](CO)NC(C)=O)CSSC[C@@H](C(=O)N[C@H](C(=O)N[C@@H](CCC(=O)O)C(=O)NCC(=O)N[C@@H](CCC(=O)O)C(=O)NCCOCCOCC(=O)NCCOCCOCC(=O)N[C@@H](CCCCNC(=O)CC[C@H](NC(=O)CNC(=O)CC[C@H](NC(=O)CCCCCCCCCCCCCCCCC(=O)O)C(=O)O)C(=O)O)C(N)=O)[C@@H](C)O)NC(=O)[C@H](CCCNC(=N)N)NC(=O)[C@H](Cc2c[nH]cn2)NC(=O)[C@H](CCC(=O)O)NC(=O)CNC(=O)[C@H](Cc2c[nH]c3ccccc23)NC(=O)[C@H](CC(=O)O)NC(=O)[C@H](CCC(N)=O)NC(=O)[C@H](Cc2cn(C)c3ccccc23)NC1=O [Compound 126] (Ac-SEFCI[Trp(1-Me)]QDWGEHRCTEGE[AEEA][AEEA]K([γGlu-Gly-γGlu-C18 diacid])-NH2; disulfide 4-14),< 100 nM,
0.7%,97%,0.5%,99%,0.3%,99%,CC[C@H](C)[C@@H]1NC(=O)[C@@H](NC(=O)[C@H](Cc2ccccc2)NC(=O)[C@H](CCC(=O)O)NC(=O)[C@H](CO)NC(C)=O)CSCC[C@@H](C(=O)N(C)CC(=O)N[C@@H](CCC(=O)O)C(=O)NCC(=O)N[C@@H](CCC(=O)O)C(=O)NCCOCCOCC(=O)NCCOCCOCC(=O)N[C@@H](CCCCNC(=O)CC[C@H](NC(=O)CNC(=O)CC[C@H](NC(=O)CCCCCCCCCCCCCCCCC(=O)O)C(=O)O)C(=O)O)C(N)=O)NC(=O)[C@H](CCCNC(=N)N)NC(=O)[C@H](Cc2c[nH]cn2)NC(=O)[C@H](CCC(=O)O)NC(=O)CNC(=O)[C@H](Cc2c[nH]c3ccccc23)NC(=O)[C@H](CCC(=O)O)NC(=O)[C@H](CCC(N)=O)NC(=O)[C@H](Cc2cn(C)c3ccccc23)NC1=O [Compound 153] (Ac-SEFCI[Trp(1-Me)]QEWGEHR[Abu(4-yl)][Sar]EGE[AEEA][AEEA]K([γGlu-Gly-γGlu-C18 diacid])-NH2; thioether 4-14),< 100 nM,
1.1%,92%,0.5%,96%,1.1%,95%,"CC[C@H](C)[C@@H]1NC(=O)[C@@H](NC(=O)[C@H](Cc2ccccc2)NC(=O)[C@H](CCC(=O)O)NC(=O)[C@H](CO)NC(C)=O)CSCC[C@@H](C(=O)N[C@H](C(=O)N[C@@H](CCC(=O)O)C(=O)NCC(=O)N[C@@H](CCC(=O)O)C(=O)NCCOCCOCC(=O)NCCOCCOCC(=O)N[C@@H](CCCCNC(=O)CC[C@H](NC(=O)CNC(=O)CC[C@H](NC(=O)CCCCCCCCCCCCCCCCC(=O)O)C(=O)O)C(=O)O)C(N)=O)[C@@H](C)O)NC(=O)[C@H](CCCNC(=N)N)NC(=O)[C@H](Cc2c[nH]cn2)NC(=O)[C@H](CCC(=O)O)NC(=O)CNC(=O)[C@H](Cc2c[nH]c3ccccc23)NC(=O)[C@H](CC(=O)O)NC(=O)[C@H](CCC(N)=O)NC(=O)[C@H](Cc2cn(C)c3ccccc23)NC1=O [Compound 156, Ac-SEFA(1)I[1-Me-Trp]QDWGEHRhC(1)TEGE[Peg3][Peg3]-K([17-carboxy-heptadecanoyl][γGlu]G[γGlu])-NH2] (Ac-SEFCI[Trp(1-Me)]QDWGEHR[Abu(4-yl)]TEGE[AEEA][AEEA]K([γGlu-Gly-γGlu-C18 diacid])-NH2; thioether 4-14)",< 100 nM,
,,,,,,Ac-EGSAYCI[Trp(1-Me)]QDWGEHK([AEEA-AEEA-γGlu-C16 diacid])C[Sar]E-NH2 (disulfide 6-16; SMILES CC[C@H](C)[C@@H]1NC(=O)[C@@H](NC(=O)[C@H](Cc2ccc(O)cc2)NC(=O)[C@H](C)NC(=O)[C@H](CO)NC(=O)CNC(=O)[C@H](CCC(=O)O)NC(C)=O)CSSC[C@@H](C(=O)N(C)CC(=O)N[C@@H](CCC(=O)O)C(N)=O)NC(=O)[C@H](CCCCNC(=O)COCCOCCNC(=O)COCCOCCNC(=O)CC[C@H](NC(=O)CCCCCCCCCCCCCCC(=O)O)C(=O)O)NC(=O)[C@H](Cc2c[nH]cn2)NC(=O)[C@H](CCC(=O)O)NC(=O)CNC(=O)[C@H](Cc2c[nH]c3ccccc23)NC(=O)[C@H](CC(=O)O)NC(=O)[C@H](CCC(N)=O)NC(=O)[C@H](Cc2cn(C)c3ccccc23)NC1=O) [Compound 103],,< 100 nM
,,,,,,Ac-K([AEEA-AEEA-γGlu-C16 diacid])GSAICIWQDWGEHRCTEGE-NH2 (disulfide 6-16; SMILES CC[C@H](C)[C@H](NC(=O)[C@H](C)NC(=O)[C@H](CO)NC(=O)CNC(=O)[C@H](CCCCNC(=O)COCCOCCNC(=O)COCCOCCNC(=O)CC[C@H](NC(=O)CCCCCCCCCCCCCCC(=O)O)C(=O)O)NC(C)=O)C(=O)N[C@H]1CSSC[C@@H](C(=O)N[C@H](C(=O)N[C@@H](CCC(=O)O)C(=O)NCC(=O)N[C@@H](CCC(=O)O)C(N)=O)[C@@H](C)O)NC(=O)[C@H](CCCNC(=N)N)NC(=O)[C@H](Cc2c[nH]cn2)NC(=O)[C@H](CCC(=O)O)NC(=O)CNC(=O)[C@H](Cc2c[nH]c3ccccc23)NC(=O)[C@H](CC(=O)O)NC(=O)[C@H](CCC(N)=O)NC(=O)[C@H](Cc2c[nH]c3ccccc23)NC(=O)[C@H]([C@@H](C)CC)NC1=O) [Compound 100],,< 500 nM
,,,,,,Ac-SAYCI[Trp(1-Me)]QDWGEHRC[Sar]EK([γGlu-Gly-Lys-γGlu-C18 diacid])-NH2 (disulfide 4-14) [Compound 105],,< 100 nM
,,,,,,{C18 diacid}-EGSEYCI[Trp(1-Me)]QDWGEHRC[Sar]E-NH2 (disulfide 6-16; SMILES CC[C@H](C)[C@@H]1NC(=O)[C@@H](NC(=O)[C@H](Cc2ccc(O)cc2)NC(=O)[C@H](CCC(=O)O)NC(=O)[C@H](CO)NC(=O)CNC(=O)[C@H](CCC(=O)O)NC(=O)CCCCCCCCCCCCCCCCC(=O)O)CSSC[C@@H](C(=O)N(C)CC(=O)N[C@@H](CCC(=O)O)C(N)=O)NC(=O)[C@H](CCCNC(=N)N)NC(=O)[C@H](Cc2c[nH]cn2)NC(=O)[C@H](CCC(=O)O)NC(=O)CNC(=O)[C@H](Cc2c[nH]c3ccccc23)NC(=O)[C@H](CC(=O)O)NC(=O)[C@H](CCC(N)=O)NC(=O)[C@H](Cc2cn(C)c3ccccc23)NC1=O) [Compound 108],,< 500 nM
,,,,,,Ac-EGSAYCI[Trp(1-Me)]QDWGEHRC[Sar]EGEK([γGlu-Gly-γGlu-C18 diacid])-NH2 (disulfide 6-16; SMILES CC[C@H](C)[C@@H]1NC(=O)[C@@H](NC(=O)[C@H](Cc2ccc(O)cc2)NC(=O)[C@H](C)NC(=O)[C@H](CO)NC(=O)CNC(=O)[C@H](CCC(=O)O)NC(C)=O)CSSC[C@@H](C(=O)N(C)CC(=O)N[C@@H](CCC(=O)O)C(=O)NCC(=O)N[C@@H](CCC(=O)O)C(=O)N[C@@H](CCCCNC(=O)CC[C@H](NC(=O)CNC(=O)CC[C@H](NC(=O)CCCCCCCCCCCCCCCCC(=O)O)C(=O)O)C(=O)O)C(N)=O)NC(=O)[C@H](CCCNC(=N)N)NC(=O)[C@H](Cc2c[nH]cn2)NC(=O)[C@H](CCC(=O)O)NC(=O)CNC(=O)[C@H](Cc2c[nH]c3ccccc23)NC(=O)[C@H](CC(=O)O)NC(=O)[C@H](CCC(N)=O)NC(=O)[C@H](Cc2cn(C)c3ccccc23)NC1=O) [Compound 109],,< 250 nM
